Measured values published in ChEMBL document CHEMBL5518207, “Structure Guided Discovery of Novel Pan Metallo-β-Lactamase Inhibitors with Improved Gram-Negative Bacterial Cell Penetration” (J Med Chem, 2024).

Assays:
[1] = target: Voltage-gated inwardly rectifying potassium channel KCNH2 (Homo sapiens, UniProt Q12809); assay: Inhibition of human ERG; type: toxicity
[2] = Inhibition of GST tagged IMP-1 (unknown origin) expressed in Escherichia coli BL21 Star (DE3) competent cells using CCF2-FA as substrate incubated for 2 hrs by fluorescence based analysis
[3] = system: Pseudomonas aeruginosa; assay: Potentiation of imipenem induced antibacterial activity against isogenic efflux deleted mutant Pseudomonas aeruginosa MB9799 harbouring IMP incubated for 18 to 22 hrs imipenem and beta lactamase inhibitor by spectrophotometer based analysis; type: functional; settings: time 18-22 hrs
[4] = system: Pseudomonas aeruginosa; assay: Potentiation of imipenem induced antibacterial activity against isogenic efflux wild type Pseudomonas aeruginosa MB9798 harbouring IMP incubated for 18 to 22 hrs imipenem and beta lactamase inhibitor by spectrophotometer based analysis; type: functional; settings: time 18-22 hrs
[5] = AUC in rat at 1 mg/kg, iv measured after 24 hrs by HPLC-MS analysis; type: ADME, organism-based; settings: in vivo
[6] = MRT in rat at 1 mg/kg, iv measured after 24 hrs by HPLC-MS analysis; type: ADME, organism-based; settings: in vivo
[7] = system: Serratia marcescens; assay: Potentiation of imipenem induced antibacterial activity against Serratia marcescens CL5741 harbouring IMP-1 incubated for 18 to 22 hrs imipenem by spectrophotometer based analysis; type: functional; settings: time 18-22 hrs
[8] = system: Klebsiella pneumoniae; assay: Potentiation of imipenem induced antibacterial activity against Klebsiella pneumoniae IHMA599644 harbouring VIM-1 incubated for 18 to 22 hrs imipenem by spectrophotometer based analysis; type: functional; settings: time 18-22 hrs
[9] = target: Cytochrome P450 2C9 (Homo sapiens, UniProt P11712); assay: Inhibition of CYP2C9 (unknown origin); type: ADME
Cytochrome P450 2C9, sequence (P11712 whole entry): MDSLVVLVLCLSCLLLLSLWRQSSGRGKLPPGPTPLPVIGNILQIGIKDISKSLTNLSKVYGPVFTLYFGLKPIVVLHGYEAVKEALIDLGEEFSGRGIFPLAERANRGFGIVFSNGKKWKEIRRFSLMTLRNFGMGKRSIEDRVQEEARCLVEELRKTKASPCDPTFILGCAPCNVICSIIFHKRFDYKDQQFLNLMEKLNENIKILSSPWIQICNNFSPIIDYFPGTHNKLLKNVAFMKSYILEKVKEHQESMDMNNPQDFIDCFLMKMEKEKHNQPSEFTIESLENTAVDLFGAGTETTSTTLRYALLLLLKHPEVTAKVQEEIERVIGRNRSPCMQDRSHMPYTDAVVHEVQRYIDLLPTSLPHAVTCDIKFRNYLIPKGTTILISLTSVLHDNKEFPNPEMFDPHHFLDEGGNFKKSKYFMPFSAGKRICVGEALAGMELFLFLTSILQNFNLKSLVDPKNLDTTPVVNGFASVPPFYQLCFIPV

[10] = Volume of distribution at steady state in Beagle dog at 1 mg/kg, iv measured after 24 hrs by HPLC-MS analysis; type: ADME, organism-based, Canis lupus familiaris; settings: in vivo, read-out: Vdss
[11] = target: Sodium channel protein type 5 subunit alpha (Homo sapiens, UniProt Q14524); assay: Inhibition of NaV 1.5 channel (unknown origin)
[12] = Inhibition of GST tagged VIM-2 (unknown origin) expressed in Escherichia coli BL21 Star (DE3) competent cells using CCF2-FA as substrate incubated for 2 hrs by fluorescence based analysis
[13] = system: Pseudomonas aeruginosa; assay: Efflux ratio of MITC95 for potentiation of imipenem induced antibacterial activity against isogenic efflux wild type Pseudomonas aeruginosa MB9798 harbouring IMP to MITC95 for potentiation of imipenem induced antibacterial activity against isogenic efflux deleted mutant Pseudomonas aeruginosa MB9799 harbouring IMP; type: functional
[14] = Inhibition of GST tagged NDM-1 (unknown origin) expressed in Escherichia coli BL21 Star (DE3) competent cells using CCF2-FA as substrate incubated for 2 hrs by fluorescence based analysis
[15] = Inhibition of GST tagged VIM-1 (unknown origin) expressed in Escherichia coli BL21 Star (DE3) competent cells using CCF2-FA as substrate incubated for 2 hrs by fluorescence based analysis
[16] = target: Cytochrome P450 2D6 (Homo sapiens, UniProt P10635); assay: Inhibition of CYP2D6 (unknown origin); type: ADME
Cytochrome P450 2D6, sequence (P10635 whole entry): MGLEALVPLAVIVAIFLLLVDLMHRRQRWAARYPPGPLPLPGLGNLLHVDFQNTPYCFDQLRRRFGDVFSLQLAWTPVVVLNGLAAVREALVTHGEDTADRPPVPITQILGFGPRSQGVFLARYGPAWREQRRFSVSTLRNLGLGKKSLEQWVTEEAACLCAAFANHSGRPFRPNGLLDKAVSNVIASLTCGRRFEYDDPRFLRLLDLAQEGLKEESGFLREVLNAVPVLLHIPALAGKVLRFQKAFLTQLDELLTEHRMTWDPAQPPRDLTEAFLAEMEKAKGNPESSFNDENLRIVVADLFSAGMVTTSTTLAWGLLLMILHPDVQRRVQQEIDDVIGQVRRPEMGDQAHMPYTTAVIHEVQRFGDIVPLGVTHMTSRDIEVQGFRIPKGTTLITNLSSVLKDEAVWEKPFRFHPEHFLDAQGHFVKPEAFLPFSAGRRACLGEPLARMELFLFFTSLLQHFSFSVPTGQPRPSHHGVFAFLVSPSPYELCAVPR

[17] = target: T1, Cytochrome P450 2C8 (Homo sapiens, UniProt P10632); assay: Inhibition of CYP2C8 (unknown origin); type: ADME
T1 sequence (P10632 whole entry): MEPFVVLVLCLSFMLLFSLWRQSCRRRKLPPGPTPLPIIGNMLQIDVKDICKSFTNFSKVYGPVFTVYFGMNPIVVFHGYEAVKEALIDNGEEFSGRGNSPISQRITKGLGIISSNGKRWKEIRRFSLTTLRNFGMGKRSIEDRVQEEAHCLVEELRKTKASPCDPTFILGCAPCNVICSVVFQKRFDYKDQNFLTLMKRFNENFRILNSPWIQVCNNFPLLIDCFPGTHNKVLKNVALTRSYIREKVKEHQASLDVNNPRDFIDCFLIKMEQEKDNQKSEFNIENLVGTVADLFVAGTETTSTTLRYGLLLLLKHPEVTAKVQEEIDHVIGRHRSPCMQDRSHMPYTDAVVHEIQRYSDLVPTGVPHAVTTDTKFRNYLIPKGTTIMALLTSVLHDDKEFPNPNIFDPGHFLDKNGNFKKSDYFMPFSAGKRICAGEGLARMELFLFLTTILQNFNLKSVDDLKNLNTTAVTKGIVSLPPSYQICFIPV

[18] = target: Cytochrome P450 3A4 (Homo sapiens, UniProt P08684); assay: Inhibition of CYP3A4 (unknown origin); type: ADME
Cytochrome P450 3A4, sequence (P08684 whole entry): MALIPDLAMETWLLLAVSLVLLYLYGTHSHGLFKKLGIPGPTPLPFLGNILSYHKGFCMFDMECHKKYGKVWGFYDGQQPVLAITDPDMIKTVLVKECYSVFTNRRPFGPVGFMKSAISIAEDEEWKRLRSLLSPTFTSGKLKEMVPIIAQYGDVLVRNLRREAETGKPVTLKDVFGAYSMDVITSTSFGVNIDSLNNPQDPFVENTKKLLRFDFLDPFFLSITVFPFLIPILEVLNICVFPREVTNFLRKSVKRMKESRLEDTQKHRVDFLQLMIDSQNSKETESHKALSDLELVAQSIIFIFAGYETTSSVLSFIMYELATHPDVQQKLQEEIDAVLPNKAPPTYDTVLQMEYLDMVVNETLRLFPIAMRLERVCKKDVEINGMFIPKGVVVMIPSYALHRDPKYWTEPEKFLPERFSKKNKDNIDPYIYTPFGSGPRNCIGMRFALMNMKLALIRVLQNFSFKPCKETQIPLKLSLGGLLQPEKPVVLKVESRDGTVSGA

[19] = target: Voltage-dependent L-type calcium channel subunit alpha-1C (Homo sapiens, UniProt Q13936); assay: Inhibition of Cav1.2 channel (unknown origin)
Voltage-dependent L-type calcium channel subunit alpha-1C, sequence (Q13936 whole entry): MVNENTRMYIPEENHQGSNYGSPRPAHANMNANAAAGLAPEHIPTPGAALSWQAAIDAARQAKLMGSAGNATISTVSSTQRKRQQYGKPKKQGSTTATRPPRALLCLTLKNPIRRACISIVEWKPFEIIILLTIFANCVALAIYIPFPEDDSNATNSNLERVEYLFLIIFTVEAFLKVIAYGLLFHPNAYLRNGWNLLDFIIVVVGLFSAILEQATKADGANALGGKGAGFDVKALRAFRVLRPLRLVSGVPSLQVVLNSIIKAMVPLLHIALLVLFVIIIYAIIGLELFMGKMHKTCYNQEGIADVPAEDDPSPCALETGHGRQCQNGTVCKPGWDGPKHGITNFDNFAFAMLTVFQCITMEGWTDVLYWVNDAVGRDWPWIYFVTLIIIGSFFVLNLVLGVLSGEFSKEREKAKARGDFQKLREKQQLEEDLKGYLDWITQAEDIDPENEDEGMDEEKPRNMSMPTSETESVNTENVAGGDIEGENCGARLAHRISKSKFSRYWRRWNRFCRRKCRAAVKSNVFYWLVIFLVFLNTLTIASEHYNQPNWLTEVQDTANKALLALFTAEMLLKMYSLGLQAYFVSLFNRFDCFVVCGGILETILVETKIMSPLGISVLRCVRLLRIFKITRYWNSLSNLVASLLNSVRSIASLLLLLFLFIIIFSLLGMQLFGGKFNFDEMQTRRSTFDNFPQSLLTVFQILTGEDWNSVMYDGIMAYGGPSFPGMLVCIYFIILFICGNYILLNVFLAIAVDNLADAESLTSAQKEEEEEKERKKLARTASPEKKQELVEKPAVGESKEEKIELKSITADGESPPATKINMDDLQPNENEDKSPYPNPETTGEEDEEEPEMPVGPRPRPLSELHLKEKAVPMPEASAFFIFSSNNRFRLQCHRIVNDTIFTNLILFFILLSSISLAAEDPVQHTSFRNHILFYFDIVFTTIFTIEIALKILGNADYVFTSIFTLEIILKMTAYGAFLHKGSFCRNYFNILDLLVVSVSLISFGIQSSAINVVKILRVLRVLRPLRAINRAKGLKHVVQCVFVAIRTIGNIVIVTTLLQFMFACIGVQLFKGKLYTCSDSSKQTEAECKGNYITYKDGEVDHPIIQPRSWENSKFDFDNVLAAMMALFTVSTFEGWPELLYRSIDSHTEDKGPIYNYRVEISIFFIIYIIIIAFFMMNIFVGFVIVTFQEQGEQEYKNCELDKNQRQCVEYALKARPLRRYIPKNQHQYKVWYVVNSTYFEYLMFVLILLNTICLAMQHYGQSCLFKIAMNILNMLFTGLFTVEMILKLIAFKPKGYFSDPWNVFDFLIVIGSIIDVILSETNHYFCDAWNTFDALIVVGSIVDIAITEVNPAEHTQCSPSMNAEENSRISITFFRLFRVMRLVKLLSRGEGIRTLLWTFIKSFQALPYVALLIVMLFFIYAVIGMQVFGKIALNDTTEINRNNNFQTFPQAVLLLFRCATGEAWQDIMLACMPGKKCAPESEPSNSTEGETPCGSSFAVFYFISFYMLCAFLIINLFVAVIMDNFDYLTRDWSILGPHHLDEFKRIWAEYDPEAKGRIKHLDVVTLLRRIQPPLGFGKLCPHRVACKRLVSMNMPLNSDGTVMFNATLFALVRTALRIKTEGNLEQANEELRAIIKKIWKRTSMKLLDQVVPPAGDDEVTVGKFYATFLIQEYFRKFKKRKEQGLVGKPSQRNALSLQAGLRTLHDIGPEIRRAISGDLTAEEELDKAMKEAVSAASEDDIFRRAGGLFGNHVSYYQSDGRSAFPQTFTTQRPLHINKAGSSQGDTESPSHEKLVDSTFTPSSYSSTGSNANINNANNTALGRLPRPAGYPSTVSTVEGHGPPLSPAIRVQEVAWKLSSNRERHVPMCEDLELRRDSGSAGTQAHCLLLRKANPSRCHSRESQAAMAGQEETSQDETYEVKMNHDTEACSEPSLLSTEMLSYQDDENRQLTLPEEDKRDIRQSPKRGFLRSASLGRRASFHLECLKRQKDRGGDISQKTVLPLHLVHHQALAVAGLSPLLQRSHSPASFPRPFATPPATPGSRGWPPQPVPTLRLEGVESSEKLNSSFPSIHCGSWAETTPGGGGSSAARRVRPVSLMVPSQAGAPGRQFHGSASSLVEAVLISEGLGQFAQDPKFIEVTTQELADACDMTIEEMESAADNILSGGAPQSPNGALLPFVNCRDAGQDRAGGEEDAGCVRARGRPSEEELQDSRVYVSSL

[20] = Volume of distribution at steady state in rat at 1 mg/kg, iv measured after 24 hrs by HPLC-MS analysis; type: ADME, organism-based; settings: in vivo, read-out: Vdss
[21] = Clearance in Beagle dog at 1 mg/kg, iv measured after 24 hrs by HPLC-MS analysis; type: ADME, organism-based, Canis lupus familiaris; settings: in vivo
[22] = Unbound fraction in Beagle dog plasma at 1 mg/kg, iv measured after 24 hrs by HPLC-MS analysis; type: ADME, organism-based, Canis lupus familiaris
[23] = Clearance in rat at 1 mg/kg, iv measured after 24 hrs by HPLC-MS analysis; type: ADME, organism-based; settings: in vivo
[24] = MRT in Beagle dog at 1 mg/kg, iv measured after 24 hrs by HPLC-MS analysis; type: ADME, organism-based, Canis lupus familiaris; settings: in vivo
[25] = Unbound fraction in rat plasma at 1 mg/kg, iv measured after 24 hrs by HPLC-MS analysis; type: ADME, organism-based
[26] = system: Escherichia coli; assay: Potentiation of imipenem induced antibacterial activity against Escherichia coli CLB30005 harbouring NDM-1 incubated for 18 to 22 hrs in presence of imipenem by spectrophotometer based analysis; type: functional; settings: time 18-22 hrs
[27] = Toxicity in Beagle dog assessed as severe adverse effect at 1 mg/kg, iv measured after 24 hrs by HPLC-MS analysis; type: organism-based, Canis lupus familiaris; settings: in vivo
[28] = Cmax in rat at 1 mg/kg, iv measured after 24 hrs by HPLC-MS analysis; type: ADME, organism-based; settings: in vivo
[29] = target: Voltage-gated potassium channel, IKs; KCNQ1(Kv7.1)/KCNE1(MinK) (Homo sapiens, UniProt P15382+P51787); assay: Inhibition of KCNQ1/KCNE1 (unknown origin); type: protein-complex assay
[30] = AUC in Beagle dog at 1 mg/kg, iv measured after 24 hrs by HPLC-MS analysis; type: ADME, organism-based, Canis lupus familiaris; settings: in vivo
[31] = Cmax in Beagle dog at 1 mg/kg, iv measured after 24 hrs by HPLC-MS analysis; type: ADME, organism-based, Canis lupus familiaris; settings: in vivo
[32] = Cmax in Wistar rat at 90 mg/kg, iv measured after 24 hrs by HPLC-MS analysis; type: ADME, organism-based; settings: in vivo
[33] = Clearance in rat at 5 mg/kg, iv measured after 24 hrs by HPLC-MS analysis; type: ADME, organism-based; settings: in vivo
[34] = Unbound fraction in rat plasma at 5 mg/kg, iv measured after 24 hrs by HPLC-MS analysis; type: ADME, organism-based
[35] = Toxicity in Beagle dog assessed as decrease in activity at 1 mg/kg, iv measured after 24 hrs by HPLC-MS analysis; type: organism-based, Canis lupus familiaris; settings: in vivo
[36] = MRT in rat at 5 mg/kg, iv measured after 24 hrs by HPLC-MS analysis; type: ADME, organism-based; settings: in vivo
[37] = Toxicity in Beagle dog assessed as increase in respiration at 1 mg/kg, iv measured after 24 hrs by HPLC-MS analysis; type: organism-based, Canis lupus familiaris; settings: in vivo
[38] = Toxicity in Beagle dog assessed as vocalization at 1 mg/kg, iv measured after 24 hrs by HPLC-MS analysis; type: organism-based, Canis lupus familiaris; settings: in vivo
[39] = Toxicity in Beagle dog assessed as emesis at 1 mg/kg, iv measured after 24 hrs by HPLC-MS analysis; type: organism-based, Canis lupus familiaris; settings: in vivo
[40] = Cmax in rat at 5 mg/kg, iv measured after 24 hrs by HPLC-MS analysis; type: ADME, organism-based; settings: in vivo
[41] = Toxicity in Beagle dog assessed as appearance of watery eyes at 1 mg/kg, iv measured after 24 hrs by HPLC-MS analysis; type: organism-based, Canis lupus familiaris; settings: in vivo
[42] = Toxicity in Beagle dog assessed as increase in histamine level in plasma at 1 mg/kg, iv measured upto 24 hrs by HPLC-MS analysis; type: organism-based, Canis lupus familiaris; settings: in vivo
[43] = AUC in rat at 5 mg/kg, iv measured after 24 hrs by HPLC-MS analysis; type: ADME, organism-based; settings: in vivo
[44] = Volume of distribution at steady state in rat at 5 mg/kg, iv measured after 24 hrs by HPLC-MS analysis; type: ADME, organism-based; settings: in vivo, read-out: Vdss

Voltage-gated inwardly rectifying potassium channel KCNH2, sequence (Q12809 whole entry): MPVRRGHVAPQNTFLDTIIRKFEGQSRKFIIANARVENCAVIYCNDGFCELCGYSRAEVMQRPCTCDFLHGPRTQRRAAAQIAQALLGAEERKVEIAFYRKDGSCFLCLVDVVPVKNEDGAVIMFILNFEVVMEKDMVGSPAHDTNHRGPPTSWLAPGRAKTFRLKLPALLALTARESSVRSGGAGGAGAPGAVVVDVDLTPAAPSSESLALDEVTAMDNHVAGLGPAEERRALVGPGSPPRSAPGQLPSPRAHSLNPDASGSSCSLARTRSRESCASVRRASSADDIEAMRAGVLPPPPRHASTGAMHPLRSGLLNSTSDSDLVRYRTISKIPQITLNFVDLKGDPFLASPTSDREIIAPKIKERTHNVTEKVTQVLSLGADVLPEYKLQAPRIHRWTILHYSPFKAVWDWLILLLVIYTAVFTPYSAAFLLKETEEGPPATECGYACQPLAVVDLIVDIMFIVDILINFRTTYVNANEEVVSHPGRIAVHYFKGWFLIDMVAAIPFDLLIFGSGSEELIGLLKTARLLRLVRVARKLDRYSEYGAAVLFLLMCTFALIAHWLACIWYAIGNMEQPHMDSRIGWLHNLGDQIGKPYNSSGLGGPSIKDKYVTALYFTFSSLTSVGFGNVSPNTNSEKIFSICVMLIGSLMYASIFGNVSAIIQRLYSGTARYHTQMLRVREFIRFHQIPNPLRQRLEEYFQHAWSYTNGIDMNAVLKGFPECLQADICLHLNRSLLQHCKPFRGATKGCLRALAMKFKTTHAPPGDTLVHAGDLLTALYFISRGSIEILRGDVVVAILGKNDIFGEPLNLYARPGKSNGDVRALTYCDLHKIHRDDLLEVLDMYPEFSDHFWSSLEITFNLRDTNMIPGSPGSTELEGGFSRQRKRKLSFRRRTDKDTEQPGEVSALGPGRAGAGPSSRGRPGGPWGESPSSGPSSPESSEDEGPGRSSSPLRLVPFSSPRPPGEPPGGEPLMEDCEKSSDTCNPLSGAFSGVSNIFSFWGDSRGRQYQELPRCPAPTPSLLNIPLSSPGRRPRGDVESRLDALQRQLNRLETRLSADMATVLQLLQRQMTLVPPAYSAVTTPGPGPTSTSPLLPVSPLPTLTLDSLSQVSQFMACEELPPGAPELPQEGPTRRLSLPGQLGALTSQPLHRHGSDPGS

| SMILES | IC50 [2] | MITC95 [3] | MITC95 [4] | AUC at 24 h [5] | MRT [6] | MITC95 [7] | MITC95 [8] | Vd [10] | IC50 [12] | Ratio [13] | IC50 [14] | IC50 [15] | Vd [20] | clearance [21] | fraction unbound at 24 h [22] | clearance [23] | fraction unbound at 24 h [25] | MITC95 [26] | Cmax [28] | Cmax [31] | further results |
| --- | --- | --- | --- | --- | --- | --- | --- | --- | --- | --- | --- | --- | --- | --- | --- | --- | --- | --- | --- | --- | --- |
| Nc1nc2cccc(-c3ccc(C(F)(F)F)c(S(N)(=O)=O)c3-c3nnn[nH]3)c2[nH]1 | 3.8 nM | 0.78 µM | 25 µM | 4.1 µM·h | 0.66 h | 0.8 µM | 1.6 µM | 0.94 L/kg | 1.3 nM | 32 | 0.1 nM | 0.3 nM | 0.38 L/kg | 9.1 mL/min/kg | 0.26 | 9.6 mL/min/kg | 0.065 | 0.4 µM | 10.8 µM | 9 µM | IC50 [1]: > 30000 nM; IC50 [9]: > 50000 nM; IC50 [11]: > 30000 nM; IC50 [16]: > 50000 nM; IC50 [17]: > 50000 nM; IC50 [18]: > 50000 nM; IC50 [19]: > 30000 nM; MRT [24]: 1.72 h; Activity [27]: Non-Toxic; IC50 [29]: > 30000 nM; AUC at 24 h [30]: 4.34 µM·h |
| Nc1ccc(-c2ccc(CC3CCNCC3)c(S(N)(=O)=O)c2-c2nn[nH]n2)cn1 | 164 nM | 12.5 µM | 50 µM | 11.7 µM·h | 1.21 h | 6.3 µM | 4.2 µM |  | 140 nM | 4 | 12 nM | 25 nM | 0.25 L/kg |  |  | 3.5 mL/min/kg | 0.47 | 0.6 µM | 16.3 µM |  | Cmax [32]: 791 µM |
| NS(=O)(=O)c1c(C[C@H]2CC[C@H](N)CC2)ccc(-c2ccc(C3CNC3)cc2)c1-c1nn[nH]n1 | 43 nM | 1.6 µM | 18 µM |  |  | 3.1 µM | 1.6 µM |  |  | 11 | 4 nM | 1 nM |  |  |  |  |  | 0.8 µM |  | 9.3 µM | clearance [33]: 2.2 mL/min/kg; fraction unbound at 24 h [34]: 0.42; Activity [35]: Toxic; MRT [36]: 3.13 h; Activity [37]: Toxic; Activity [38]: Toxic; Activity [39]: Toxic; Cmax [40]: 84.3 µM; Activity [41]: Toxic; Activity [42]: Toxic; AUC at 24 h [43]: 83.7 µM·h; Vd [44]: 0.39 L/kg |
| NS(=O)(=O)c1c(C(F)(F)F)ccc([C@H]2CC[C@H](N)CC2)c1-c1nnn[nH]1 | 39.4 nM | 0.78 µM | 200 µM | 5 µM·h | 0.87 h | 0.8 µM | 0.8 µM | 0.31 L/kg |  | 256 | 13.5 nM | 0.7 nM | 0.45 L/kg | 2.6 mL/min/kg | 0.76 | 8.7 mL/min/kg | 0.78 | 0.4 µM | 12.7 µM | 15 µM | MRT [24]: 2.03 h; Activity [27]: Non-Toxic; AUC at 24 h [30]: 16.7 µM·h |
